Earlier results, collected in patent US6045800A, “Composition for preventing or treating periodontal diseases comprising extract from Achyranthis radix or Ulmus cortex” (LG Chemical Ltd., priority 1997, dated 2000).

System: periodontal diseases

What does the source list for `CN(C)C1C(=O)C(C(N)=O)=C(O)C2(O)C(=O)C3=C(O)c4c(O)cccc4C(C)(O)C3CC12` (stereo not drawn) [tetracycline]?
clinical effect on the symptom of the disease (1000 mg/day for 5 to 7 days): relieved to a clinically normal state; clinical effect of long term administration (daily dose of 1000 mg for 2 weeks, then 250 mg once daily for 48 weeks): gingivitis has clinically decreased; side effects (use of the antibiotic): vomiting, a complaint for the ache of gastrointestinal tracts, diarrhea, dental coloring
